Experimental data from US9713615B2, “Tetrahydroisoquinolin-2-yl-(quinazolin-4-yl)methanone compounds” (Rexahn Pharmaceuticals, Inc., priority 2013, dated 2017).
Like-named read-outs stand apart in the source and are kept apart here. One block for each compound: values may come before it.

Assays:
Format in all cases: cell-based, Human
MDA-MB-231 (breast) = assay: SRB growth inhibition assay, MDA-MB-231; conditions: read-out: Inhibition of cell growth (IC50, μM) MDA-MB-231
Excerpt: (§1) Cancer cells used in this study to determine the effect of tetrahydroisoquinolin-2-yl-(quinazolin-4-yl)methanone compounds were obtained from the following sources: Human OVCAR-3 (ovary), SK-MEL-28 (melanoma), MDA-MB-231 (breast), HeLa (cervix), PC3 (prostate), HepG2 (liver), A549 (lung), Caki-1 (kidney), HCT116 (colon) and PANC-1 (pancreas) from the American Type Culture Collection (ATCC) (Manassas, Va.); U251 (brain) from Riken (Japan); MKN-45 (stomach) from DSMZ (Germany). All cell lines except MDA-MB-231, HCT116, Caki-1 and PANC-1 were grown in RPMI1640 medium (Invitrogen, Carlsbad, Calif.) supplemented with 10% fetal bovine serum (“FBS”), 1 mM sodium pyruvate, 10 mM HEPES and 100 U/ml penicillin and 100 μg/ml streptomycin (“P/S”). MDA-MB-231, HCT116, Caki-1 and PANC-1 cells were maintained in Dulbecco's modified Eagle's medium (“DMEM”, Invitrogen) supplemented with 10% FBS, P/S, 10 mM HEPES and 2 mM L-glutamine. All cells were incubated at 37° C. under humidified 5% CO2.
(§2) The growth inhibition of the tetrahydroisoquinolin-2-yl-(quinazolin-4-yl)methanone compounds against a variety of human tumor cells was evaluated to study the relative importance of particular substituent groups on the compounds. The tetrahydroisoquinolin-2-yl-(quinazolin-4-yl)methanone compounds, prepared as described above, were tested with DMSO as a control.
(§3) The growth inhibition assay of representative tetrahydroisoquinolin-2-yl-(quinazolin-4-yl)methanone derivatives against human tumor cell lines was performed using the Sulforhodamine B (“SRB”) method (Skehan et al., J. National Cancer Institute, 82: 1107-1112 (1990)). Briefly, exponentially growing tumor cells were seeded into a 96-well plate at a density of 2-3×10^3 cells/well and treated with tetrahydroisoquinolin-2-yl-(quinazolin-4-yl)methanone compounds the next day. Triplicate wells were used for each treatment. The cells were incubated with the various compounds for 96 hours at 37° C. in a humidified 5% CO2 atmosphere. After 96-hour incubation, cells were fixed with 10% trichloroacetic acid (“TCA”), incubated for 1 hour at 4° C., and washed 3 times with tap water. Subsequently, cells were stained with 0.4% sulforhodamine B in 1% acetic acid for 30 minutes, washed 4 times with 1% acetic acid, and air-dried again After 5 minutes agitation in 10 mM Tris solution, the absorbance of each well was measured at 530 nm using Benchmark Plus Microplate reader (Bio-Rad Laboratories, Hercules, Calif.).
(§4) To translate the OD530 values into the number of live cells in each well, the OD530 values were compared to those on standard OD530-versus-cell number curves generated for each cell line. The percent survival was calculated using the formula: % Survival=live cell number [test]/live cell number [control]×100
(§5) The IC50 values were calculated by non-linear regression analysis.
(§6) The compounds were screened against at […] including PANC-1, MDA-MB-231, HCT116 and Caki-1, at approximately 1 μM concentration. The inhibition of cell growth (IC50, μM) of some tetrahydroisoquinolin-2-yl-(quinazolin-4-yl)methanone compounds are shown in Table 2.

HCT116 (colon) = assay: SRB growth inhibition assay, HCT116; conditions: read-out: Inhibition of cell growth (IC50, μM) HCT116
Excerpt: as §1, §2, §3, §4, §5, §6

PANC-1 (pancreas) = assay: SRB growth inhibition assay, PANC-1; conditions: read-out: Inhibition of cell growth (IC50, μM) Panc-1
Excerpt: as §1, §2, §3, §4, §5, §6

Caki-1 (kidney) = assay: SRB growth inhibition assay, Caki-1; conditions: read-out: Inhibition of cell growth (IC50, μM) Caki-1
Excerpt: as §1, §2, §3, §4, §5, §6

[1] = Homo sapiens, MDA-MB-231, 96 hours incubation
[2] = Homo sapiens, HCT-116, 96 hours incubation
[3] = Homo sapiens, PANC-1, 96 hours incubation
[4] = Homo sapiens, CAKI-1, 96 hours incubation

Compound: 2-[[2-(3-fluorophenyl)phenyl)quinazolin-4-yl]carbonyl]-5-hydroxy-6-methyl-1,2,3,4-tetrahydroisoquinoline [Compound 46]
IC50 (MDA-MB-231 (breast); 96 hours incubation): 0.58 µM
IC50 (HCT116 (colon); 96 hours incubation): 0.54 µM
IC50 (Caki-1 (kidney); 96 hours incubation): 0.52 µM
IC50 (PANC-1 (pancreas); 96 hours incubation): 0.51 µM

Compound: CC(=O)Nc1ccc(-c2nc(C(=O)N3CCc4c(ccc(C)c4O)C3)c3ccccc3n2)cc1 [Compound 64, 2-[[2-(4-acetamidophenyl)quinazolin-4-yl]carbonyl]-5-hydroxy-6-methyl-1,2,3,4-tetrahydroisoquinoline]
IC50 (MDA-MB-231 (breast); [1]): 0.52 µM
IC50 (HCT116 (colon); [2]): 0.89 µM
IC50 (Caki-1 (kidney); [4]): 0.63 µM
IC50 (PANC-1 (pancreas); [3]): 0.68 µM

Compound: Cc1ccc2c(c1O)CCN(C(=O)c1nc(-c3cccnc3)nc3ccccc13)C2 [Compound 88, 2-[[2-(3-pyridinyl)quinazolin-4-yl]carbonyl]-5-hydroxy-6-methyl-1,2,3,4-tetrahydroisoquinoline]
IC50 (MDA-MB-231 (breast); [1]): 0.67 µM
IC50 (HCT116 (colon); [2]): 1.12 µM
IC50 (Caki-1 (kidney); [4]): 0.97 µM
IC50 (PANC-1 (pancreas); [3]): 0.93 µM

Compound: COc1ccc2c(c1OC)CCN(C(=O)c1nc(-c3ccccc3)nc3ccccc13)C2 [Compound 19, 2-[[2-phenylquinazolin-4-yl]carbonyl]-5,6-dimethoxy-1,2,3,4-tetrahydroisoquinoline]
IC50 (MDA-MB-231 (breast); [1]): 0.84 µM
IC50 (HCT116 (colon); [2]): 1.08 µM
IC50 (Caki-1 (kidney); [4]): 0.85 µM
IC50 (PANC-1 (pancreas); [3]): 1.06 µM

Compound: Cc1ccc2c(c1O)CCN(C(=O)c1nc(-c3ccc(Cl)cc3)nc3ccccc13)C2 [Compound 31, 2-[[2-(4-chlorophenyl)quinazolin-4-yl]carbonyl]-5-hydroxy-6-methyl-1,2,3,4-tetrahydroisoquinoline]
IC50 (MDA-MB-231 (breast); [1]): 0.63 µM
IC50 (HCT116 (colon); [2]): 0.91 µM
IC50 (Caki-1 (kidney); [4]): 0.64 µM
IC50 (PANC-1 (pancreas); [3]): 0.85 µM

Compound: Cc1ccc(-c2nc(C(=O)N3CCc4c(ccc(C)c4O)C3)c3ccccc3n2)cc1 [Compound 16, 2-[[2-(4-methylphenyl)quinazolin-4-yl]carbonyl]-5-hydroxy-6-methyl-1,2,3,4-tetrahydroisoquinoline]
IC50 (MDA-MB-231 (breast); [1]): 1.5 µM
IC50 (HCT116 (colon); [2]): 2.05 µM
IC50 (Caki-1 (kidney); [4]): 1.61 µM
IC50 (PANC-1 (pancreas); [3]): 1.72 µM

Compound: COc1cccc(-c2nc(C(=O)N3CCc4c(ccc(OC)c4O)C3)c3ccccc3n2)c1 [Compound 47, 2-[[2-(3-methoxylphenyl)quinazolin-4-yl]carbonyl]-5-hydroxy-6-methoxy-1,2,3,4-tetrahydroisoquinoline]
IC50 (MDA-MB-231 (breast); [1]): 0.49 µM
IC50 (HCT116 (colon); [2]): 0.81 µM
IC50 (Caki-1 (kidney); [4]): 0.59 µM
IC50 (PANC-1 (pancreas); [3]): 0.5 µM

Compound: COc1ccc2c(c1O)CCN(C(=O)c1nc(-c3ccc(Cl)cc3)nc3ccccc13)C2 [Compound 27, 2-[[2-(4-chlorophenyl)quinazolin-4-yl]carbonyl]-5-hydroxy-6-methoxy-1,2,3,4-tetrahydroisoquinoline]
IC50 (MDA-MB-231 (breast); [1]): 0.54 µM
IC50 (HCT116 (colon); [2]): 0.5 µM
IC50 (Caki-1 (kidney); [4]): 0.46 µM
IC50 (PANC-1 (pancreas); [3]): 0.42 µM

Compound: COc1ccc2c(c1OC)CCN(C(=O)c1nc(-c3cscn3)nc3ccccc13)C2 [Compound 81, 2-[[2-(4-thiazolyl)quinazolin-4-yl]carbonyl]-5,6-dimethoxy-1,2,3,4-tetrahydroisoquinoline]
IC50 (MDA-MB-231 (breast); [1]): 1 µM
IC50 (HCT116 (colon); [2]): 1.26 µM
IC50 (Caki-1 (kidney); [4]): 1.21 µM
IC50 (PANC-1 (pancreas); [3]): 1.43 µM

Compound: COc1ccc2c(c1OC)CCN(C(=O)c1nc(-c3ccc(F)cc3)nc3ccccc13)C2 [Compound 3, 2-[[2-(4-fluorophenyl)quinazolin-4-yl]carbonyl]-5,6-dimethoxy-1,2,3,4-tetrahydroisoquinoline]
IC50 (MDA-MB-231 (breast); [1]): 1.2 µM
IC50 (HCT116 (colon); [2]): 1.39 µM
IC50 (Caki-1 (kidney); [4]): 1.1 µM
IC50 (PANC-1 (pancreas); [3]): 1.45 µM

Compound: COc1ccc(-c2nc(C(=O)N3CCc4c(ccc(N(C)C)c4O)C3)c3ccccc3n2)cc1 [Compound 25, 2-[[2-(4-methoxylphenyl)quinazolin-4-yl]carbonyl]-5-hydroxy-6-dimethylamino-1,2,3,4-tetrahydroisoquinoline]
IC50 (MDA-MB-231 (breast); [1]): 2.53 µM
IC50 (PANC-1 (pancreas); [3]): 1.77 µM

Compound: COc1ccc2c(c1OC)CCN(C(=O)c1nc(-c3cccc(C(F)(F)F)c3)nc3ccccc13)C2 [Compound 54, 2-[[2-(3-(trifluoromethyl)phenyl)quinazolin-4-yl]carbonyl]-5,6-dimethoxy-1,2,3,4-tetrahydroisoquinoline]
IC50 (MDA-MB-231 (breast); [1]): 3.44 µM
IC50 (HCT116 (colon); [2]): 1.65 µM

Second part, led by results:

IC50 (MDA-MB-231 (breast); [1]): 0.23 µM
IC50 (HCT116 (colon); [2]): 0.36 µM
IC50 (PANC-1 (pancreas); [3]): 0.28 µM
Compound: COc1ccc2c(c1O)CCN(C(=O)c1nc(-c3ccc(N)cc3)nc3ccccc13)C2 [Compound 96, 2-[[2-(4-aminophenyl)quinazolin-4-yl]carbonyl]-5-hydroxy-6-methoxy-1,2,3,4-tetrahydroisoquinoline]

IC50 (MDA-MB-231 (breast); [1]): 0.43 µM
IC50 (HCT116 (colon); [2]): 0.52 µM
IC50 (PANC-1 (pancreas); [3]): 0.47 µM
Compound: COc1ccc2c(c1O)CCN(C(=O)c1nc(-c3ccc(N(C)C)cc3)nc3ccccc13)C2 [Compound 32, 2-[[2-(4-(dimethylamino)phenyl)quinazolin-4-yl]carbonyl]-5-hydroxy-6-methoxy-1,2,3,4-tetrahydroisoquinoline]
IC50 (Caki-1 (kidney); [4]): 0.37 µM

IC50 (MDA-MB-231 (breast); [1]): 0.41 µM
IC50 (HCT116 (colon); [2]): 0.49 µM
IC50 (PANC-1 (pancreas); [3]): 0.46 µM
Compound: COc1ccc(-c2nc(C(=O)N3CCc4c(ccc(OC)c4OC)C3)c3ccccc3n2)cc1 [Compound 24, 2-[[2-(4-methoxylphenyl)quinazolin-4-yl]carbonyl]-5,6-dimethoxy-1,2,3,4-tetrahydroisoquinoline]
IC50 (Caki-1 (kidney); [4]): 0.38 µM

IC50 (MDA-MB-231 (breast); [1]): 0.11 µM
IC50 (HCT116 (colon); [2]): 0.16 µM
IC50 (PANC-1 (pancreas); [3]): 0.2 µM
Compound: COc1ccc2c(c1O)CCN(C(=O)c1nc(-c3ccc([N+](=O)[O-])cc3)nc3ccccc13)C2 [Compound 95, 2-[[2-(4-nitrophenyl)quinazolin-4-yl]carbonyl]-5-hydroxy-6-methoxy-1,2,3,4-tetrahydroisoquinoline]

IC50 (MDA-MB-231 (breast); [1]): 0.17 µM
IC50 (HCT116 (colon); [2]): 0.2 µM
IC50 (PANC-1 (pancreas); [3]): 0.17 µM
Compound: COc1ccc2c(c1O)CCN(C(=O)c1nc(-c3cscn3)nc3ccccc13)C2 [Compound 79, 2-[[2-(4-thiazolyl)quinazolin-4-yl]carbonyl]-5-hydroxy-6-methoxy-1,2,3,4-tetrahydroisoquinoline]
IC50 (Caki-1 (kidney); [4]): 0.16 µM

IC50 (MDA-MB-231 (breast); [1]): 0.21 µM
IC50 (HCT116 (colon); [2]): 0.29 µM
IC50 (PANC-1 (pancreas); [3]): 0.23 µM
Compound: Cc1ccc2c(c1O)CCN(C(=O)c1nc(-c3cscn3)nc3ccccc13)C2 [Compound 83, 2-[[2-(4-thiazolyl)quinazolin-4-yl]carbonyl]-5-hydroxy-6-methyl-1,2,3,4-tetrahydroisoquinoline]
IC50 (Caki-1 (kidney); [4]): 0.25 µM

IC50 (MDA-MB-231 (breast); [1]): 0.23 µM
IC50 (HCT116 (colon); [2]): 0.29 µM
IC50 (PANC-1 (pancreas); [3]): 0.18 µM
Compound: COc1ccc2c(c1O)CCN(C(=O)c1nc(-c3ccc(C)cc3)nc3ccccc13)C2 [Compound 12, 2-[[2-(4-methylphenyl)quinazolin-4-yl]carbonyl]-5-hydroxy-6-methoxy-1,2,3,4-tetrahydroisoquinoline]
IC50 (Caki-1 (kidney); [4]): 0.2 µM

IC50 (MDA-MB-231 (breast); [1]): 0.21 µM
IC50 (HCT116 (colon); [2]): 0.26 µM
IC50 (PANC-1 (pancreas); [3]): 0.2 µM
Compound: Cc1ccc2c(c1O)CCN(C(=O)c1nc(-c3ccncn3)nc3ccccc13)C2 [Compound 73, 2-[[2-(4-pyrimidinyl)quinazolin-4-yl]carbonyl]-5-hydroxy-6-methyl-1,2,3,4-tetrahydroisoquinoline]
IC50 (Caki-1 (kidney); [4]): 0.19 µM

IC50 (MDA-MB-231 (breast); [1]): 0.2 µM
IC50 (HCT116 (colon); [2]): 0.34 µM
IC50 (PANC-1 (pancreas); [3]): 0.21 µM
Compound: COc1ccc2c(c1O)CCN(C(=O)c1nc(-c3ccc(NC(C)=O)cc3)nc3ccccc13)C2 [Compound 62, 2-[[2-(4-acetamidophenyl)quinazolin-4-yl]carbonyl]-5-hydroxy-6-methoxy-1,2,3,4-tetrahydroisoquinoline]
IC50 (Caki-1 (kidney); [4]): 0.2 µM
